# Measurements reported in US9730937B2, “RAF kinase modulator compounds and methods of use thereof” (AMBIT BIOSCIENCES CORPORATION, priority 2008, dated 2017).
# Counter-ions that a name gives are not always drawn. Like-named read-outs stand apart in the source and are kept apart here.
# Key:
# [1] = molecular target: wild type BRAF kinase (Homo sapiens (Human), UniProt P15056); details: read-out: BRAF WT Kd, class symbols
# [2] = test system: panel of 290 distinct kinases (321 in the larger panel), excluding mutant variants; details: kinase selectivity score, class symbols
# [3] = molecular target: mutant BRAF kinase (Homo sapiens (Human), UniProt P15056, V600E); details: read-out: BRAF V600E Kd, class symbols
# [4] = molecular target: RAF kinases (Homo sapiens (Human), UniProt P04049); details: read-out: RAF1 Kd, class symbols
# [5] = value marked * (larger kinase panel)
# RAF kinases, sequence (P04049 whole entry): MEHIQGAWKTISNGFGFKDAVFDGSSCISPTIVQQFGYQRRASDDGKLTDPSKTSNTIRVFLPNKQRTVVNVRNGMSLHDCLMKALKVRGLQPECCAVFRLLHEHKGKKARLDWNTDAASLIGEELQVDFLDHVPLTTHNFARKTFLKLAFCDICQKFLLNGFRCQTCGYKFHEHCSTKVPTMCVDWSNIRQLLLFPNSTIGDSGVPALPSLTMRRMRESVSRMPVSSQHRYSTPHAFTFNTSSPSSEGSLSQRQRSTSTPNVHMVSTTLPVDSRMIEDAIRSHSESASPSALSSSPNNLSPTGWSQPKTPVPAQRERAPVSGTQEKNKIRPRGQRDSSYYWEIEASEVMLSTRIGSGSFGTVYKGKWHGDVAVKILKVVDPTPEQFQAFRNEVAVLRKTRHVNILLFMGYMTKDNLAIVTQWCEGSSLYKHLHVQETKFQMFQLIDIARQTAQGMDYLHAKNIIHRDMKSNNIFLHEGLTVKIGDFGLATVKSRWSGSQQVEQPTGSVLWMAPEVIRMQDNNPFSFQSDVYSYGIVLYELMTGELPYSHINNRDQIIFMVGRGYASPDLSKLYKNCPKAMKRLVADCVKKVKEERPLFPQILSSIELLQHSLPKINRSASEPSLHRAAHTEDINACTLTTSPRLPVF
# mutant BRAF kinase, sequence (P15056 whole entry V600E): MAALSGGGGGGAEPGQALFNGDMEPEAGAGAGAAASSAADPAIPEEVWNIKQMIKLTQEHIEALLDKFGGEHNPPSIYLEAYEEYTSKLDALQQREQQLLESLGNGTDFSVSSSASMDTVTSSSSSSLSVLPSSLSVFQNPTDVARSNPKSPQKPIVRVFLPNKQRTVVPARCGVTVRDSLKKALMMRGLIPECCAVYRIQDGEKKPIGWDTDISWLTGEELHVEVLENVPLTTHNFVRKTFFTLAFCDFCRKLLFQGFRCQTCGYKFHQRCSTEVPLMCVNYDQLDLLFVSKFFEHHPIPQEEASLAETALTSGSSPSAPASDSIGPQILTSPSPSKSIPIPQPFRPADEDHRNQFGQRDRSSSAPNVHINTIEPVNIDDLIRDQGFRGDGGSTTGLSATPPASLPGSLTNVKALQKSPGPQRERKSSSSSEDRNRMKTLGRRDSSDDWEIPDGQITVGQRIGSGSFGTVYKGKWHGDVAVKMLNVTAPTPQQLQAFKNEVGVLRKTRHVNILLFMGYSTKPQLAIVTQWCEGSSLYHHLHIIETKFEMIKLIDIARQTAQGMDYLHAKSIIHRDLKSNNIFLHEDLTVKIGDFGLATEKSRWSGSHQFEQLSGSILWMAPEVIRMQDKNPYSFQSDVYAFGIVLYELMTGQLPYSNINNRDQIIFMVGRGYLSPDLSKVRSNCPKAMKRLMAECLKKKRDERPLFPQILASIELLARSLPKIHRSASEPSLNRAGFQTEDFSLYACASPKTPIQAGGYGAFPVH
# wild type BRAF kinase, sequence (P15056 whole entry): as the sequence (P15056 whole entry V600E) above, with E600V counted along it
SMILES,Kd [1] [nM],"S35 [2, 5]",S35 ([2]; 290 distinct kinases),Kd [3] [nM],Kd [4] [nM]
"COc1cc2ncnc(Sc3cccc(NC(=O)Nc4ccc(C(F)(F)F)c(F)c4)c3)c2cc1OC [Ex 188, 1-(3-(6,7-dimethoxyquinazolin-4-ylthio)phenyl)-3-(3-fluoro-4-(trifluoromethyl)phenyl)urea]",> 1000,B* (0.10 < B ≦ 0.20),,,
"COc1cc2ncnc(Oc3cccc(NC(=O)Nc4cc(Cl)cc(C(F)(F)F)c4)c3)c2cc1OC [Ex 140, 1-(3-chloro-5-(trifluoromethyl)phenyl)-3-(3-(6,7-dimethoxyquinazolin-4-yloxy)phenyl)urea]",> 1000,,B (0.10 < B ≦ 0.20),,
"COc1cc2ncnc(Oc3cccc(NC(=O)Nc4ccc(C(F)(F)F)cc4)c3)c2cc1OC [Ex 183, 1-(3-(6,7-dimethoxyquinazolin-4-yloxy)phenyl)-3-(4-(trifluoromethyl)phenyl)urea]",,C* (0.20 < C ≦ 0.40),,< 250,< 250
"COc1ccc2ncnc(Sc3cccc(NC(=O)Nc4cc(C(C)(C)C)on4)c3)c2c1 [Ex 49, 1-(5-tert-butylisoxazol-3-yl)-3-(3-(6-methoxyquinazolin-4-ylthio)phenyl)urea]",> 1000,,C (0.20 < C ≦ 0.40),,
"COc1cc2ncnc(Sc3cccc(NC(=O)Nc4cc(C(C)(C)C)on4)c3)c2cc1OCCCN1CCS(=O)(=O)CC1 [Ex 62, 1-(5-tert-butyl-isoxazol-3-yl)-3-(3-{6-[3-(1,1-dioxo-thiomorpholin-4-yl)-propoxy]-7-methoxy-quinazolin-4-ylsulfanyl}-phenyl)-urea]",,,C (0.20 < C ≦ 0.40),< 250,< 250
"COc1cc2ncnc(Sc3cccc(NC(=O)Nc4cc(CN5CCOCC5)cc(C(F)(F)F)c4)c3)c2cc1OC [Ex 189, 1-(3-(6,7-dimethoxyquinazolin-4-ylthio)phenyl)-3-(3-(morpholinomethyl)-5-(trifluoromethyl)phenyl)urea]",> 1000,C* (0.20 < C ≦ 0.40),,,
"COc1cc2ncnc(Sc3cccc(NC(=O)Nc4cccc(C(C)(C)C)c4)c3)c2cc1OC [Ex 120, 1-(3-tert-butylphenyl)-3-(3-(6,7-dimethoxyquinazolin-4-ylthio)phenyl)urea]",,C* (0.20 < C ≦ 0.40),,< 250,< 250
"COc1cc2ncnc(Oc3cccc(NC(=O)Nc4cc(C(C)(C)C)on4)c3)c2cc1O [Ex 107, 1-(5-tert-butylisoxazol-3-yl)-3-(3-(6-hydroxy-7-methoxyquinazolin-4-yloxy)phenyl)urea]",,,C (0.20 < C ≦ 0.40),< 250,< 250
"COc1cc2c(Sc3cccc(NC(=O)Nc4cc(C(C)(C)C)on4)c3)ncnc2cc1OCCN1CCC(CO)CC1 [Ex 86, 1-(5-tert-butylisoxazol-3-yl)-3-(3-(7-(2-(4-(hydroxymethyl)piperidin-1-yl)ethoxy)-6-methoxyquinazolin-4-ylthio)phenyl)urea]",> 1000,,C (0.20 < C ≦ 0.40),,
"COc1cc2ncnc(Oc3cccc(NC(=O)Nc4cc(C(F)(F)F)ccc4Cl)c3)c2cc1OC [Ex 142, 1-(2-chloro-5-(trifluoromethyl)phenyl)-3-(3-(6,7-dimethoxyquinazolin-4-yloxy)phenyl)urea]",> 1000,,B (0.10 < B ≦ 0.20),,
"COc1cc2ncnc(Oc3cccc(NC(=O)Nc4cc(C(C)(C)C)on4)c3)c2cc1OCCCN1CCS(=O)(=O)CC1 [Ex 26, 1-(5-tert-butyl-isoxazol-3-yl)-3-(3-{6-[3-(1,1-dioxo-thiomorpholin-4-yl)-propoxy]-7-methoxy-quinazolin-4-yloxy}-phenyl)-urea]",,,D (D > 0.40),< 250,< 250
"COc1cc2ncnc(Oc3cccc(NC(=O)Nc4cccc(C(C)(C)C)c4)c3)c2cc1OC [Ex 118, 1-(3-tert-butylphenyl)-3-(3-(6,7-dimethoxyquinazolin-4-yloxy)phenyl)urea]",,C* (0.20 < C ≦ 0.40),,< 250,< 250
"COc1cc2ncnc(Sc3cccc(NC(=O)Nc4ccc(C(C)(C)C)cc4)c3)c2cc1OC [Ex 174, 1-(4-tert-butylphenyl)-3-(3-(6,7-dimethoxyquinazolin-4-ylthio)phenyl)urea]",> 1000,,C (0.20 < C ≦ 0.40),,
"COc1cc2ncnc(Oc3cccc(NC(=O)Nc4cc(C5CCCC5)no4)c3)c2cc1OC [Ex 163, 1-(3-cyclopentylisoxazol-5-yl)-3-(3-(6,7-dimethoxyquinazolin-4-yloxy)phenyl)urea]",> 1000,C* (0.20 < C ≦ 0.40),,,
"COc1cc2c(Oc3cccc(NC(=O)Nc4cc(C(C)(C)C)on4)c3)ncnc2cc1O[C@@H]1CCNC1 [Ex 98, (R)-1-(5-tert-butylisoxazol-3-yl)-3-(3-(6-methoxy-7-(pyrrolidin-3-yloxy)quinazolin-4-yloxy)phenyl)urea dihydrochloride]",,,C (0.20 < C ≦ 0.40),< 250,< 250
"COc1cc(OC2CCOCC2)c2c(Oc3cccc(NC(=O)Nc4cc(C(C)(C)C)on4)c3)ncnc2c1 [Ex 94, 1-(5-tert-butylisoxazol-3-yl)-3-{3-[7-methoxy-5-(tetrahydro-2H-pyran-4-yloxy)quinazolin-4-yloxy]phenyl}urea]",> 1000,,C (0.20 < C ≦ 0.40),,
"COc1cc2ncnc(Oc3cccc(NC(=O)Nc4ccc(OC)c(C(F)(F)F)c4)c3)c2cc1OC [Ex 138, 1-(3-(6,7-dimethoxyquinazolin-4-yloxy)phenyl)-3-(4-methoxy-3-(trifluoromethyl)phenyl)urea]",,,B (0.10 < B ≦ 0.20),< 250,< 250
"COc1cc2ncnc(Sc3cccc(NC(=O)Nc4cc(C(C)(C)F)no4)c3)c2cc1OC [Ex 187, 1-(3-(6,7-dimethoxyquinazolin-4-ylthio)phenyl)-3-(3-(2-fluoropropan-2-yl)isoxazol-5-yl)urea]",,C* (0.20 < C ≦ 0.40),,< 250,< 250
"COc1cc2ncnc(Sc3cccc(NC(=O)Nc4cc(C5CCCC5)on4)c3)c2cc1OC [Ex 201, 1-(5-Cyclopentylisoxazol-3-yl)-3-(3-(6,7-dimethoxyquinazolin-4-ylthio)phenyl)urea]",,C* (0.20 < C ≦ 0.40),,< 250,< 250
"COc1cc2ncnc(Oc3cccc(NC(=O)Nc4cc(C(C)(C)C)on4)c3)c2cc1OCCN1CCCCC1 [Ex 16, 1-(5-tert-butylisoxazol-3-yl)-3-(3-(7-methoxy-6-(2-(piperidin-1-yl)ethoxy)quinazolin-4-yloxy)phenyl)urea]",,,C (0.20 < C ≦ 0.40),< 250,> 1000
"COc1cc2c(Sc3cccc(NC(=O)Nc4cc(C(C)(C)C)on4)c3)ncnc2cc1OCCCN1CCC(CO)CC1 [Ex 74, 1-(5-tert-butylisoxazol-3-yl)-3-(3-(7-(3-(4-(hydroxymethyl)piperidin-1-yl)propoxy)-6-methoxyquinazolin-4-ylthio)phenyl)urea]",,,D (D > 0.40),< 250,< 250
"COc1cc2ncnc(Sc3cccc(NC(=O)Nc4cc(C(C)(C)C)on4)c3)c2cc1OCCN1CCOCC1 [Ex 70, 1-(5-tert-butylisoxazol-3-yl)-3-(3-(7-methoxy-6-(2-morpholinoethoxy)quinazolin-4-ylthio)phenyl)urea]",,,C (0.20 < C ≦ 0.40),< 250,< 250
"COc1cc2ncnc(Sc3cccc(NC(=O)Nc4cccc(C(F)(F)F)c4)c3)c2cc1OC [Ex 185, 1-(3-(6,7-dimethoxyquinazolin-4-ylthio)phenyl)-3-(3-(trifluoromethyl)phenyl)urea]",,C* (0.20 < C ≦ 0.40),,< 250,< 250
"COc1cc2ncnc(Sc3cccc(NC(=O)Nc4cc(C(C)(C)C)on4)c3)c2cc1OCCCN1CCOCC1 [Ex 63, 1-(5-tert-butylisoxazol-3-yl)-3-(3-(7-methoxy-6-(3-morpholinopropoxy)quinazolin-4-ylthio)phenyl)urea]",,,C (0.20 < C ≦ 0.40),< 250,< 250
"COc1cc2ncnc(Sc3cccc(NC(=O)Nc4cc(C(C)(C)C)on4)c3)c2cc1OCCCN1CCN(CCO)CC1 [Ex 61, 1-(5-tert-butylisoxazol-3-yl)-3-(3-(6-(3-(4-(2-hydroxyethyl)piperazin-1-yl)propoxy)-7-methoxyquinazolin-4-ylthio)phenyl)urea]",,,D (D > 0.40),< 250,< 250
"COc1cc2c(Oc3cccc(NC(=O)Nc4cc(C(C)(C)C)on4)c3)ncnc2cc1O[C@H]1CCNC1 [Ex 96, (S)-1-(5-tert-butylisoxazol-3-yl)-3-(3-(6-methoxy-7-(pyrrolidin-3-yloxy)quinazolin-4-yloxy)phenyl)urea dihydrochloride]",,,C (0.20 < C ≦ 0.40),< 250,< 250
"COc1cc2ncnc(Oc3cccc(NC(=O)Nc4cc(C(C)(C)C)on4)c3)c2cc1OC[C@@H](O)CN1CCN(C)CC1 [Ex 111, (S)-1-(5-tert-butylisoxazol-3-yl)-3-(3-(6-(2-hydroxy-3-(4methylpiperazin-1-yl)propoxy)-7-methoxyquinazolin-4-yloxy)phenyl)urea]",,,D (D > 0.40),< 250,< 250
"COc1cc2c(Oc3cccc(NC(=O)Nc4cc(C(C)(C)C)on4)c3)ncnc2cc1OCCCN1CCN(C)CC1 [Ex 28, 1-(5-tert-butylisoxazol-3-yl)-3-(3-(6-methoxy-7-(3-(4-methylpiperazin-1-yl)propoxy)quinazolin-4-yloxy)phenyl)urea]",,,D (D > 0.40),< 250,< 250
"COc1cc2ncnc(Oc3cccc(NC(=O)Nc4cc(C(C)(C)CO)on4)c3)c2cc1OC [Ex 131, 1-(3-(6,7-dimethoxyquinazolin-4-yloxy)phenyl)-3-(5-(1-hydroxy-2-methylpropan-2-yl)isoxazol-3-yl)urea]",,,C (0.20 < C ≦ 0.40),< 250,< 250
